Source: paper PMC12057336 (Antimicrobial Agents and Chemotherapy, 2025)
Like-named read-outs stand apart in the source and are kept apart here.

How the values were obtained:
[1] = Tissue distribution after i.g. or i.v. linezolid in control, CCl4-induced and 5/6 Nx rats; format: in vivo, rat; conditions: for Kp at 0.5 h / Kp at 1 h / Kp at 4 h: rat
Excerpt: These two groups were further divided into the following three subgroups (n = 4): control rats, CCl4-induced rats, and 5/6 Nx rats. […] The rats were euthanized immediately after blood sampling. The brain, heart, lungs, liver, kidneys, and small intestine were collected. The collected tissues were washed and homogenized in normal saline (three-fold volume of each sample weight) using a multi-sample tissue grinder (Tissuelyser-48L; Shanghai Jingxin Industrial Development Co. Ltd., Shanghai, China). After centrifugation of the homogenate samples at 12,000 × g for 10 min at 4°C, the supernatants were stored at −80°C.
The flow rate was 1.0 mL/min.
Then, 5 µL of the supernatant was analyzed.

[2] = cited from earlier work; for median plasma concentration: standard doses
[3] = brain, iv, 25 mg/kg, i.v. 25 mg/kg linezolid, 5/6 Nx rats, read-out: Tissue/plasma concentration ratio, Brain
[4] = brain, iv, 25 mg/kg, i.v. 25 mg/kg linezolid, CCl4-induced rats, read-out: Tissue/plasma concentration ratio, Brain
[5] = brain, iv, 25 mg/kg, i.v. 25 mg/kg linezolid, control rats, read-out: Tissue/plasma concentration ratio, Brain
[6] = brain, oral, 63 mg/kg, i.g. 63 mg/kg linezolid, 5/6 Nx rats, read-out: Tissue/plasma concentration ratio, Brain
[7] = brain, oral, 63 mg/kg, i.g. 63 mg/kg linezolid, CCl4-induced rats, read-out: Tissue/plasma concentration ratio, Brain
[8] = brain, oral, 63 mg/kg, i.g. 63 mg/kg linezolid, control rats, read-out: Tissue/plasma concentration ratio, Brain
[9] = heart, iv, 25 mg/kg, i.v. 25 mg/kg linezolid, 5/6 Nx rats, read-out: Tissue/plasma concentration ratio, Heart
[10] = heart, iv, 25 mg/kg, i.v. 25 mg/kg linezolid, CCl4-induced rats, read-out: Tissue/plasma concentration ratio, Heart
[11] = heart, iv, 25 mg/kg, i.v. 25 mg/kg linezolid, control rats, read-out: Tissue/plasma concentration ratio, Heart
[12] = heart, oral, 63 mg/kg, i.g. 63 mg/kg linezolid, CCl4-induced rats, read-out: Tissue/plasma concentration ratio, Heart
[13] = heart, oral, 63 mg/kg, i.g. 63 mg/kg linezolid, control rats, read-out: Tissue/plasma concentration ratio, Heart
[14] = heart, oral, 63 mg/kg, i.g. 63 mg/kg linezolid, 5/6 Nx rats, read-out: Tissue/plasma concentration ratio, Heart
[15] = kidney, iv, 25 mg/kg, i.v. 25 mg/kg linezolid, 5/6 Nx rats, read-out: Tissue/plasma concentration ratio, Kidney
[16] = kidney, iv, 25 mg/kg, i.v. 25 mg/kg linezolid, control rats, read-out: Tissue/plasma concentration ratio, Kidney
[17] = kidney, oral, 63 mg/kg, i.g. 63 mg/kg linezolid, CCl4-induced rats, read-out: Tissue/plasma concentration ratio, Kidney
[18] = kidney, oral, 63 mg/kg, i.g. 63 mg/kg linezolid, 5/6 Nx rats, read-out: Tissue/plasma concentration ratio, Kidney
[19] = kidney, oral, 63 mg/kg, i.g. 63 mg/kg linezolid, control rats, read-out: Tissue/plasma concentration ratio, Kidney
[20] = liver (homogenate) relative to plasma, iv, 25 mg/kg, i.v. 25 mg/kg linezolid, 5/6 Nx rats, read-out: Tissue/plasma concentration ratio, Liver
[21] = liver (homogenate) relative to plasma, iv, 25 mg/kg, i.v. 25 mg/kg linezolid, control rats, read-out: Tissue/plasma concentration ratio, Liver
[22] = liver, oral, 63 mg/kg, i.g. 63 mg/kg linezolid, 5/6 Nx rats, read-out: Tissue/plasma concentration ratio, Liver
[23] = liver, oral, 63 mg/kg, i.g. 63 mg/kg linezolid, CCl4-induced rats, read-out: Tissue/plasma concentration ratio, Liver
[24] = liver, oral, 63 mg/kg, i.g. 63 mg/kg linezolid, control rats, read-out: Tissue/plasma concentration ratio, Liver
[25] = lung, iv, 25 mg/kg, i.v. 25 mg/kg linezolid, 5/6 Nx rats, read-out: Tissue/plasma concentration ratio, Lung
[26] = lung, iv, 25 mg/kg, i.v. 25 mg/kg linezolid, CCl4-induced rats, read-out: Tissue/plasma concentration ratio, Lung
[27] = lung, iv, 25 mg/kg, i.v. 25 mg/kg linezolid, control rats, read-out: Tissue/plasma concentration ratio, Lung
[28] = lung, oral, 63 mg/kg, i.g. 63 mg/kg linezolid, 5/6 Nx rats, read-out: Tissue/plasma concentration ratio, Lung
[29] = lung, oral, 63 mg/kg, i.g. 63 mg/kg linezolid, CCl4-induced rats, read-out: Tissue/plasma concentration ratio, Lung
[30] = lung, oral, 63 mg/kg, i.g. 63 mg/kg linezolid, control rats, read-out: Tissue/plasma concentration ratio, Lung
[31] = small intestine, iv, 25 mg/kg, i.v. 25 mg/kg linezolid, 5/6 Nx rats, read-out: Tissue/plasma concentration ratio, Small intestine
[32] = small intestine, iv, 25 mg/kg, i.v. 25 mg/kg linezolid, CCl4-induced rats, read-out: Tissue/plasma concentration ratio, Small intestine
[33] = small intestine, iv, 25 mg/kg, i.v. 25 mg/kg linezolid, control rats, read-out: Tissue/plasma concentration ratio, Small intestine
[34] = small intestine, oral, 63 mg/kg, i.g. 63 mg/kg linezolid, 5/6 Nx rats, read-out: Tissue/plasma concentration ratio, Small intestine
[35] = small intestine, oral, 63 mg/kg, i.g. 63 mg/kg linezolid, CCl4-induced rats, read-out: Tissue/plasma concentration ratio, Small intestine
[36] = small intestine, oral, 63 mg/kg, i.g. 63 mg/kg linezolid, control rats, read-out: Tissue/plasma concentration ratio, Small intestine
[37] = thrombocytopenic patients with moderate renal failure

Which results are given for `CC(=O)NC[C@H]1CN(c2ccc(N3CCOCC3)c(F)c2)C(=O)O1` [Linezolid]?
Kp at 0.5 h [1, 3]: 0.12 ± 0.04; Kp at 0.5 h [1, 4]: 0.16 ± 0.12; Kp at 0.5 h [1, 5]: 0.11 ± 0.02; Kp at 1 h [1, 3]: 0.15 ± 0.01; Kp at 1 h [1, 4]: 0.12 ± 0.03; Kp at 1 h [1, 5]: 0.12 ± 0.02; Kp at 4 h [1, 3]: 0.13 ± 0.04; Kp at 4 h [1, 4]: 0.08 ± 0.01; Kp at 0.5 h [1, 6]: 0.17 ± 0.06; Kp at 0.5 h [1, 7]: 0.1 ± 0.01; Kp at 0.5 h [1, 8]: 0.15 ± 0.02; Kp at 1 h [1, 6]: 0.16 ± 0.03; Kp at 1 h [1, 7]: 0.09 ± 0.02; Kp at 1 h [1, 8]: 0.03 ± 0.002; Kp at 4 h [1, 6]: 0.18 ± 0.06; Kp at 4 h [1, 7]: 0.07 ± 0.04; Kp at 4 h [1, 8]: 0.06 ± 0.03; Kp at 0.5 h [1, 9]: 0.85 ± 0.04; Kp at 0.5 h [1, 10]: 0.63 ± 0.05; Kp at 0.5 h [1, 11]: 0.5 ± 0.09; Kp at 1 h [1, 9]: 0.91 ± 0.04; Kp at 1 h [1, 10]: 0.67 ± 0.05; Kp at 1 h [1, 11]: 0.4 ± 0.07; Kp at 4 h [1, 9]: 0.75 ± 0.13; Kp at 4 h [1, 10]: 0.67 ± 0.09; Kp at 4 h [1, 11]: 0.13 ± 0.1; Kp at 0.5 h [1, 12]: 0.64 ± 0.14; Kp at 0.5 h [1, 13]: 0.68 ± 0.06; Kp at 1 h [1, 14]: 0.88 ± 0.12; Kp at 1 h [1, 12]: 0.54 ± 0.18; Kp at 1 h [1, 13]: 0.24 ± 0.06; Kp at 4 h [1, 14]: 0.96 ± 0.47; Kp at 4 h [1, 12]: 0.61 ± 0.03; Kp at 4 h [1, 13]: 0.47 ± 0.15; Kp at 4 h ([1]; kidney (homogenate) relative to plasma, iv, 25 mg/kg, i.v. 25 mg/kg linezolid, 5/6 Nx rats, read-out: Tissue/plasma concentration ratio, Kidney): 1 ± 0.23; Kp at 0.5 h [1, 15]: 0.97 ± 0.12; Kp at 0.5 h ([1]; kidney, iv, 25 mg/kg, i.v. 25 mg/kg linezolid, CCl4-induced rats, read-out: Tissue/plasma concentration ratio, Kidney): 1.28 ± 0.56; Kp at 0.5 h [1, 16]: 0.64 ± 0.36; Kp at 1 h [1, 15]: 0.92 ± 0.18; Kp at 1 h [1, 16]: 0.62 ± 0.52; Kp at 4 h [1, 16]: 0.84 ± 0.14; Kp at 0.5 h [1, 17]: 0.85 ± 0.16; Kp at 1 h [1, 18]: 0.94 ± 0.18; Kp at 1 h [1, 17]: 1.18 ± 0.22; Kp at 1 h [1, 19]: 0.42 ± 0.06; Kp at 4 h [1, 18]: 0.97 ± 0.25; Kp at 4 h [1, 17]: 1.11 ± 0.17; Kp at 4 h [1, 19]: 0.75 ± 0.15; Kp at 0.5 h [1, 20]: 1.24 ± 0.21; Kp at 0.5 h ([1]; liver (homogenate) relative to plasma, iv, 25 mg/kg, i.v. 25 mg/kg linezolid, CCl4-induced rats, read-out: Tissue/plasma concentration ratio, Liver): 1.32 ± 0.36; Kp at 0.5 h [1, 21]: 1.22 ± 0.46; Kp at 1 h [1, 20]: 1.11 ± 0.34; Kp at 1 h [1, 21]: 0.6 ± 0.38; Kp at 4 h ([1]; liver, iv, 25 mg/kg, i.v. 25 mg/kg linezolid, 5/6 Nx rats, read-out: Tissue/plasma concentration ratio, Liver): 1.39 ± 0.4; Kp at 4 h ([1]; liver, iv, 25 mg/kg, i.v. 25 mg/kg linezolid, CCl4-induced rats, read-out: Tissue/plasma concentration ratio, Liver): 1.19 ± 0.85; Kp at 4 h ([1]; liver, iv, 25 mg/kg, i.v. 25 mg/kg linezolid, control rats, read-out: Tissue/plasma concentration ratio, Liver): 1.3 ± 0.36; Kp at 0.5 h [1, 22]: 1.25 ± 0.6; Kp at 0.5 h [1, 23]: 1.06 ± 0.44; Kp at 0.5 h [1, 24]: 1.64 ± 0.75; Kp at 1 h [1, 22]: 1.37 ± 0.41; Kp at 1 h [1, 23]: 1.19 ± 0.18; Kp at 1 h [1, 24]: 0.78 ± 0.14; Kp at 4 h [1, 22]: 1 ± 0.11; Kp at 4 h [1, 23]: 0.93 ± 0.31; Kp at 4 h [1, 24]: 1.06 ± 0.16; Kp at 0.5 h [1, 25]: 0.87 ± 0.03; Kp at 0.5 h [1, 26]: 0.55 ± 0.34; Kp at 0.5 h [1, 27]: 0.42 ± 0.25; Kp at 1 h [1, 25]: 0.91 ± 0.08; Kp at 1 h [1, 26]: 0.66 ± 0.08; Kp at 1 h [1, 27]: 0.25 ± 0.18; Kp at 4 h [1, 25]: 0.74 ± 0.2; Kp at 4 h [1, 26]: 0.85 ± 0.14; Kp at 4 h [1, 27]: 0.45 ± 0.46; Kp at 0.5 h [1, 28]: 0.86 ± 0.38; Kp at 0.5 h [1, 29]: 0.68 ± 0.16; Kp at 0.5 h [1, 30]: 0.67 ± 0.13; Kp at 1 h [1, 28]: 0.94 ± 0.18; Kp at 1 h [1, 29]: 0.66 ± 0.05; Kp at 1 h [1, 30]: 0.07 ± 0.03; Kp at 4 h [1, 28]: 0.82 ± 0.09; Kp at 4 h [1, 29]: 0.6 ± 0.04; Kp at 4 h [1, 30]: 0.46 ± 0.15; Kp at 0.5 h [1, 31]: 1.19 ± 0.31; Kp at 0.5 h [1, 32]: 0.66 ± 0.05; Kp at 0.5 h [1, 33]: 0.42 ± 0.21; Kp at 1 h [1, 31]: 0.77 ± 0.34; Kp at 1 h [1, 32]: 0.69 ± 0.05; Kp at 1 h [1, 33]: 0.21 ± 0.01; Kp at 4 h [1, 31]: 0.73 ± 0.07; Kp at 4 h [1, 32]: 0.71 ± 0.09; Kp at 4 h [1, 33]: 0.47 ± 0.42; Kp at 0.5 h [1, 34]: 2.48 ± 0.76; Kp at 0.5 h [1, 35]: 0.93 ± 0.26; Kp at 0.5 h [1, 36]: 0.35 ± 0.21; Kp at 1 h [1, 34]: 1.28 ± 0.29; Kp at 1 h [1, 35]: 0.9 ± 0.09; Kp at 1 h [1, 36]: 0.33 ± 0.22; Kp at 4 h [1, 34]: 0.9 ± 0.31; Kp at 4 h [1, 35]: 1.11 ± 0.07; Kp at 4 h [1, 36]: 0.6 ± 0.18; accumulation in brain, heart, lung, liver, kidney, or small intestinal tissues ([1]; within 4 hours after i.g. and i.v. administration, hepatic impairment or renal failure rats): did not accumulate; administered dose excreted in the urine as the parent drug [2]: 35%; apparent volume of distribution (Vd) [2]: 40 to 50 L; elimination half-life (t1/2) [2]: 5 to 7 h; total clearance (CL) [2]: 80 mL/min; median plasma concentration ([2]; controls without liver cirrhosis): 2.70 mg/L; mean recovery of linezolid radioactivity in excreta ([2]; healthy volunteers): 93.8%; radioactivity excreted in the feces ([2]; healthy volunteers): 9.9%; radioactivity excreted in the urine ([2]; healthy volunteers): 83.9%; share of dosed linezolid in the urine ([2]; humans): more than 30%; CL ([2]; patient with acute-on-chronic liver failure): 1.54 L/h; median plasma concentration ([2]; patients with liver cirrhosis): 20.6 mg/L; median trough concentration ([2]; patients with mild hepatic impairment): 5.51 mg/L; median trough concentration ([2]; patients with moderate hepatic impairment): 6.70 mg/L; median trough concentration ([2]; patients with severe hepatic impairment): 20.7 mg/L; CL ([2]; patients without concomitant liver failure): 6.26 L/h; AUC0-24 [2, 37]: 513.1 to 994.6 µg·h/mL; trough concentration [2, 37]: 14.4 to 35.6 mg/L
